Test results from PubChem BioAssay (NCI).
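Assay format: 96-well plates, 48-hour exposure. Here, GI50 denotes the concentration required for 50% inhibition of growth. Definition used: TGI = concentration required for complete inhibition of growth.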

What was measured:
Experiment in all cases: growth of human tumour cells (NCI), 48 h
786-0 renal = system: 786-0 renal
A498 renal = system: A498 renal
A549 NSCLC = system: A549 NSCLC
ACHN renal = system: ACHN renal
BT-549 breast = system: BT-549 breast
CAKI-1 renal = system: CAKI-1 renal
CCRF-CEM leukemia = system: CCRF-CEM leukemia
COLO 205 colon = system: COLO 205 colon
DU-145 prostate = system: DU-145 prostate
EKVX NSCLC = system: EKVX NSCLC
HCC-2998 colon = system: HCC-2998 colon
HCT-116 colon = system: HCT-116 colon
HCT-15 colon = system: HCT-15 colon
HL-60(TB) leukemia = system: HL-60(TB) leukemia
HOP-62 NSCLC = system: HOP-62 NSCLC
HOP-92 NSCLC = system: HOP-92 NSCLC
HS 578T breast = system: HS 578T breast
HT29 colon = system: HT29 colon
IGROV1 ovarian = system: IGROV1 ovarian
K-562 leukemia = system: K-562 leukemia
KM12 colon = system: KM12 colon
LOX IMVI melanoma = system: LOX IMVI melanoma
M14 melanoma = system: M14 melanoma
MALME-3M melanoma = system: MALME-3M melanoma
MCF7 breast = system: MCF7 breast
MDA-MB-231 breast = system: MDA-MB-231 breast
MDA-MB-435 = system: MDA-MB-435
MOLT-4 leukemia = system: MOLT-4 leukemia
NCI-H226 lung = system: NCI-H226 lung
NCI-H23 lung = system: NCI-H23 lung
NCI-H460 lung = system: NCI-H460 lung
NCI-H522 lung = system: NCI-H522 lung
NCI/ADR-RES ovarian = system: NCI/ADR-RES ovarian
OVCAR-3 ovarian = system: OVCAR-3 ovarian
OVCAR-4 ovarian = system: OVCAR-4 ovarian
OVCAR-5 ovarian = system: OVCAR-5 ovarian
OVCAR-8 ovarian = system: OVCAR-8 ovarian
PC-3 prostate = system: PC-3 prostate
RPMI-8226 leukemia = system: RPMI-8226 leukemia
RXF 393 renal = system: RXF 393 renal
SF-268 CNS = system: SF-268 CNS
SF-295 CNS = system: SF-295 CNS
SF-539 CNS = system: SF-539 CNS
SK-MEL-2 melanoma = system: SK-MEL-2 melanoma
SK-MEL-28 melanoma = system: SK-MEL-28 melanoma
SK-MEL-5 melanoma = system: SK-MEL-5 melanoma
SK-OV-3 ovarian = system: SK-OV-3 ovarian
SN12C renal = system: SN12C renal
SNB-19 CNS = system: SNB-19 CNS
SNB-75 CNS = system: SNB-75 CNS
SR leukemia = system: SR leukemia
SW-620 colon = system: SW-620 colon
T-47D breast = system: T-47D breast
TK-10 renal = system: TK-10 renal
U251 CNS = system: U251 CNS
UACC-257 melanoma = system: UACC-257 melanoma
UACC-62 melanoma = system: UACC-62 melanoma
UO-31 renal = system: UO-31 renal

SMILES: O=C(N/N=C/c1ccc([N+](=O)[O-])s1)c1[nH]c2ccc(Br)cc2c1-c1ccccc1
- GI50 (786-0 renal): 1300 nM
- TGI (786-0 renal): 19200 nM
- GI50 (A498 renal): > 34700 nM
- TGI (A498 renal): > 92100 nM
- GI50 (A549 NSCLC): 1070 nM
- TGI (A549 NSCLC): 12900 nM
- GI50 (ACHN renal): 883 nM
- GI50 (BT-549 breast): 747 nM
- TGI (BT-549 breast): 2670 nM
- GI50 (CAKI-1 renal): 1510 nM
- TGI (CAKI-1 renal): > 26100 nM
- GI50 (CCRF-CEM leukemia): 1220 nM
- TGI (CCRF-CEM leukemia): 99600 nM
- GI50 (COLO 205 colon): 578 nM
- TGI (COLO 205 colon): 1140 nM
- GI50 (DU-145 prostate): 1140 nM
- TGI (DU-145 prostate): > 55400 nM
- GI50 (EKVX NSCLC): 1720 nM
- TGI (EKVX NSCLC): 8290 nM
- GI50 (HCC-2998 colon): 787 nM
- TGI (HCC-2998 colon): 2120 nM
- GI50 (HCT-116 colon): 816 nM
- TGI (HCT-116 colon): 4700 nM
- GI50 (HCT-15 colon): 706 nM
- TGI (HCT-15 colon): 2720 nM
- GI50 (HL-60(TB) leukemia): 723 nM
- TGI (HL-60(TB) leukemia): 1940 nM
- GI50 (HOP-62 NSCLC): 1070 nM
- TGI (HOP-62 NSCLC): 6970 nM
- GI50 (HOP-92 NSCLC): 851 nM
- TGI (HOP-92 NSCLC): 4610 nM
- GI50 (HS 578T breast): 943 nM
- TGI (HS 578T breast): 12900 nM
- GI50 (HT29 colon): 858 nM
- TGI (HT29 colon): 2800 nM
- GI50 (IGROV1 ovarian): 932 nM
- TGI (IGROV1 ovarian): > 50900 nM
- GI50 (K-562 leukemia): 365 nM
- TGI (K-562 leukemia): 14200 nM
- GI50 (KM12 colon): 1080 nM
- TGI (KM12 colon): 5470 nM
- GI50 (LOX IMVI melanoma): 487 nM
- TGI (LOX IMVI melanoma): 12700 nM
- GI50 (M14 melanoma): 627 nM
- TGI (M14 melanoma): 2030 nM
- GI50 (MALME-3M melanoma): 800 nM
- TGI (MALME-3M melanoma): 4500 nM
- GI50 (MCF7 breast): 741 nM
- TGI (MCF7 breast): > 32400 nM
- GI50 (MDA-MB-231 breast): 881 nM
- TGI (MDA-MB-231 breast): 2850 nM
- GI50 (MDA-MB-435): 323 nM
- TGI (MDA-MB-435): 918 nM
- GI50 (MOLT-4 leukemia): 1070 nM
- TGI (MOLT-4 leukemia): 16600 nM
- GI50 (NCI-H226 lung): 716 nM
- TGI (NCI-H226 lung): 2780 nM
- GI50 (NCI-H23 lung): 1180 nM
- TGI (NCI-H23 lung): 18800 nM
- GI50 (NCI-H460 lung): 820 nM
- TGI (NCI-H460 lung): 3030 nM
- GI50 (NCI-H522 lung): 115 nM
- TGI (NCI-H522 lung): 535 nM
- GI50 (NCI/ADR-RES ovarian): 458 nM
- GI50 (OVCAR-3 ovarian): 1060 nM
- TGI (OVCAR-3 ovarian): 9860 nM
- GI50 (OVCAR-4 ovarian): 1630 nM
- TGI (OVCAR-4 ovarian): > 46900 nM
- GI50 (OVCAR-5 ovarian): 1140 nM
- TGI (OVCAR-5 ovarian): 27200 nM
- GI50 (OVCAR-8 ovarian): 756 nM
- TGI (OVCAR-8 ovarian): 2080 nM
- GI50 (PC-3 prostate): 967 nM
- GI50 (RPMI-8226 leukemia): 912 nM
- TGI (RPMI-8226 leukemia): 8560 nM
- GI50 (RXF 393 renal): 354 nM
- TGI (RXF 393 renal): 9220 nM
- GI50 (SF-268 CNS): 1840 nM
- TGI (SF-268 CNS): > 100000 nM
- GI50 (SF-295 CNS): 596 nM
- TGI (SF-295 CNS): 12200 nM
- GI50 (SF-539 CNS): 515 nM
- TGI (SF-539 CNS): 1510 nM
- GI50 (SK-MEL-2 melanoma): 769 nM
- TGI (SK-MEL-2 melanoma): 2540 nM
- GI50 (SK-MEL-28 melanoma): 995 nM
- TGI (SK-MEL-28 melanoma): > 34200 nM
- GI50 (SK-MEL-5 melanoma): 605 nM
- TGI (SK-MEL-5 melanoma): 1290 nM
- GI50 (SK-OV-3 ovarian): 1690 nM
- TGI (SK-OV-3 ovarian): > 53500 nM
- GI50 (SN12C renal): 885 nM
- TGI (SN12C renal): 3130 nM
- GI50 (SNB-19 CNS): 961 nM
- TGI (SNB-19 CNS): > 32300 nM
- GI50 (SNB-75 CNS): 320 nM
- TGI (SNB-75 CNS): 5710 nM
- GI50 (SR leukemia): 391 nM
- TGI (SR leukemia): 10600 nM
- GI50 (SW-620 colon): 768 nM
- TGI (SW-620 colon): 8530 nM
- GI50 (T-47D breast): 2350 nM
- TGI (T-47D breast): > 91300 nM
- GI50 (TK-10 renal): 2970 nM
- TGI (TK-10 renal): > 49800 nM
- GI50 (U251 CNS): 716 nM
- TGI (U251 CNS): 3030 nM
- GI50 (UACC-257 melanoma): 916 nM
- TGI (UACC-257 melanoma): 9150 nM
- GI50 (UACC-62 melanoma): 401 nM
- TGI (UACC-62 melanoma): 3980 nM
- GI50 (UO-31 renal): 1040 nM
- TGI (UO-31 renal): > 33400 nM
